According to ChEMBL document CHEMBL1122786, “Synthesis and antifolate properties of 10-alkyl-8,10-dideazaminopterins” (J Med Chem, 1984):

Legend:
Mus musculus [1] = species on record: Mus musculus; test: Compound was evaluated for antitumor activity against L1210 leukemia in mice and percent increase in life span was determined.; format: functional
Mus musculus [2] = species on record: Mus musculus; test: Compound was evaluated for antitumor activity against L1210 leukemia in mice and median survival time was determined at ten mice per run.; format: functional
Mus musculus [3] = test: Compound was evaluated for antitumor activity against L1210 leukemia in mice and LD10 was determined 24 hour after subcutaneous administration in 10 E 6 cells implanted intraperitoneally.; format: ADME, organism-based; conditions: in vivo, sc
Mus musculus [4] = species on record: Mus musculus; test: Compound was evaluated for antitumor activity against L1210 leukemia in mice and median survival time was determined at ten animals per run.; format: functional

SMILES	ILS (Mus musculus [1])	MST (Mus musculus [2])	LD10 (Mus musculus [3])	MST (Mus musculus [4])
CC(Cc1ccc2nc(N)nc(N)c2n1)c1ccc(C(=O)NC(CCC(=O)O)C(=O)O)cc1 (stereo not drawn)	203%	21.5 days	0.6 mg/kg	
CCC(Cc1ccc2nc(N)nc(N)c2n1)c1ccc(C(=O)NC(CCC(=O)O)C(=O)O)cc1 (stereo not drawn)	235%		1.5 mg/kg	23.8 days
Nc1nc(N)c2nc(CCc3ccc(C(=O)NC(CCC(=O)O)C(=O)O)cc3)ccc2n1 (stereo not drawn)	189%		0.75 mg/kg	
CCCC(Cc1ccc2nc(N)nc(N)c2n1)c1ccc(C(=O)NC(CCC(=O)O)C(=O)O)cc1 (stereo not drawn)	176%		6 mg/kg	
CN(Cc1cnc2nc(N)nc(N)c2n1)c1ccc(C(=O)N[C@@H](CCC(=O)O)C(=O)O)cc1 [METHOTREXATE]	187%		15 mg/kg	20.4 days
